Values joined by “and” are separate entries in the source; they are usually repeats but may differ in a detail not shown here. Equal entries are not always repeated.
How the values were obtained:
ACVR2B = target: T1, ACVR2B (Homo sapiens, UniProt Q13705); test: KINOMEscan competitive binding assay (Kd); settings: analyses herein; read-out: Binding constant (Kd) ACVR2B
T1 construct: purchased Eurofins/DiscoveryX (KINOMEscan service)
Text: (§1) 5. Methods for In vitro characterizations of HYL001
(§2) Kinase affinity and selectivity
(§3) Kd values were obtained by an 11 -point
(§4) (BMPR1A), ALK4 (ACVR1B), ALK6 (BMPR1B), ACVR2B and TGFβ R2. […]

ALK1 (ACVRL1) = target: T2, ALK1 (ACVRL1) (Homo sapiens, UniProt P37023); test: KINOMEscan competitive binding assay (Kd); settings: analyses herein; read-out: Binding constant (Kd) ALK1 (ACVRL1)
T2 construct: purchased Eurofins/DiscoveryX (KINOMEscan service)
T2 sequence (P37023 22-503): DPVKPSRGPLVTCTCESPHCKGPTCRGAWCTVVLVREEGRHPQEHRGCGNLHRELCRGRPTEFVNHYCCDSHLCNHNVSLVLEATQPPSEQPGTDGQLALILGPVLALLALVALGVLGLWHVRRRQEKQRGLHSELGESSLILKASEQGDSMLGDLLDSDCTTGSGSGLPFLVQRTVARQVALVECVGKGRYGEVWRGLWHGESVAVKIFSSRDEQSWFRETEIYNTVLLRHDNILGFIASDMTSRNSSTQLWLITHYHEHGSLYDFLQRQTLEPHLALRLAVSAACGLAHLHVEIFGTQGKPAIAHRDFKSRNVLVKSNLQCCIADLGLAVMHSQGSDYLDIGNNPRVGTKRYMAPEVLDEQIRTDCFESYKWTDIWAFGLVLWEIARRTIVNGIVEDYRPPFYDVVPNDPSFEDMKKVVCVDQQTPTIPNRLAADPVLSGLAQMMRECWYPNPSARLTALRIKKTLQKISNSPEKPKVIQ
Text: as §1, §2, §3, §4

ALK2 (ACVR1) = target: T3, ALK2 (ACVR1) (Homo sapiens, UniProt Q04771); test: KINOMEscan competitive binding assay (Kd); settings: analyses herein; read-out: Binding constant (Kd) ALK2 (ACVR1)
T3 construct: purchased Eurofins/DiscoveryX (KINOMEscan service)
T3 sequence (Q04771 21-509): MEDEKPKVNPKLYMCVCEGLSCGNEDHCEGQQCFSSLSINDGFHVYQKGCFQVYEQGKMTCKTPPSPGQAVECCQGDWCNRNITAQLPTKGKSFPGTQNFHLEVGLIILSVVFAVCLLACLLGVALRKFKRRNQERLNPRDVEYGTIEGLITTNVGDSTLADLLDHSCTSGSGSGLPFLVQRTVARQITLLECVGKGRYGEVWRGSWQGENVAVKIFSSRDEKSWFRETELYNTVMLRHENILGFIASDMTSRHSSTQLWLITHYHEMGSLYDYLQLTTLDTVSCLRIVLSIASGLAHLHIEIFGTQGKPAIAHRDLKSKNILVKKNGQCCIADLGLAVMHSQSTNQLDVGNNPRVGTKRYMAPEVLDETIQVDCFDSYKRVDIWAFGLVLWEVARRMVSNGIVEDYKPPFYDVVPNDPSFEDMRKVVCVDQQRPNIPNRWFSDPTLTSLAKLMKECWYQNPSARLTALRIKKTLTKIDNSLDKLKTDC
Text: as §1, §2, §3, §4

ALK3 (BMPR1A) = target: T4, ALK3 (BMPR1A) (Homo sapiens, UniProt P36894); test: KINOMEscan competitive binding assay (Kd); settings: analyses herein; read-out: Binding constant (Kd) ALK3 (BMPR1A)
T4 construct: purchased Eurofins/DiscoveryX (KINOMEscan service)
T4 sequence (P36894 24-532): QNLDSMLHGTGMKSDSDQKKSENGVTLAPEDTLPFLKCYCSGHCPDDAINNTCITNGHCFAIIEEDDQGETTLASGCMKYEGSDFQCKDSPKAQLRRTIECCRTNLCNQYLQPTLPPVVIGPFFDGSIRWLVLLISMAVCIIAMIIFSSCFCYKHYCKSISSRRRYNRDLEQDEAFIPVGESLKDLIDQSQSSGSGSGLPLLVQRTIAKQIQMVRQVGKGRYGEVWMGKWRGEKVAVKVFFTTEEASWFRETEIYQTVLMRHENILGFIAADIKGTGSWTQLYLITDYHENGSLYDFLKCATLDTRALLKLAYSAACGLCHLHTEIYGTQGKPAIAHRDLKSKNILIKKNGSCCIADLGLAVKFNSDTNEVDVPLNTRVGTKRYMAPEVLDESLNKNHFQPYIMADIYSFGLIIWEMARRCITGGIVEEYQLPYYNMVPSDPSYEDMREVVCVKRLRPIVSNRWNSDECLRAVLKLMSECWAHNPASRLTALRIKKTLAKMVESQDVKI
Text: as §1, §2, §3, §4

ALK6 (BMPR1B) = target: T5, ALK6 (BMPR1B) (Homo sapiens, UniProt O00238); test: KINOMEscan competitive binding assay (Kd); settings: analyses herein; read-out: Binding constant (Kd) ALK6 (BMPR1B)
T5 construct: purchased Eurofins/DiscoveryX (KINOMEscan service)
T5 sequence (O00238 14-502): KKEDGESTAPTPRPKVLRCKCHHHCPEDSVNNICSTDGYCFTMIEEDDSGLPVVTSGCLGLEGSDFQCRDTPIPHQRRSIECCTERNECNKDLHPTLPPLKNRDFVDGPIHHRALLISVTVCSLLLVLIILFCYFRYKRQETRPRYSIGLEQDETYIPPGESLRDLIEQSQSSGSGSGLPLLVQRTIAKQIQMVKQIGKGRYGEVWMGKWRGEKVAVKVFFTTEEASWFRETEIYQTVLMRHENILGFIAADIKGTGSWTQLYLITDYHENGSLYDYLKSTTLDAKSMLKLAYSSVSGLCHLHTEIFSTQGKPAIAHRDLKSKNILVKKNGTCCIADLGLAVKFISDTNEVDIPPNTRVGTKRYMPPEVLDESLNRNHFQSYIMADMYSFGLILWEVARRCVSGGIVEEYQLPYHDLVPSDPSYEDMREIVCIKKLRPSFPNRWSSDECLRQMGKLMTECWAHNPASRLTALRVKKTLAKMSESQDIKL
Text: as §1, §2, §3, §4

TGFBR2 = target: T6, TGFBR2 (Homo sapiens, UniProt P37173); test: KINOMEscan competitive binding assay (Kd); settings: analyses herein; read-out: Binding constant (Kd) TGFBR2
T6 construct: purchased Eurofins/DiscoveryX (KINOMEscan service)
T6 sequence (P37173 23-567): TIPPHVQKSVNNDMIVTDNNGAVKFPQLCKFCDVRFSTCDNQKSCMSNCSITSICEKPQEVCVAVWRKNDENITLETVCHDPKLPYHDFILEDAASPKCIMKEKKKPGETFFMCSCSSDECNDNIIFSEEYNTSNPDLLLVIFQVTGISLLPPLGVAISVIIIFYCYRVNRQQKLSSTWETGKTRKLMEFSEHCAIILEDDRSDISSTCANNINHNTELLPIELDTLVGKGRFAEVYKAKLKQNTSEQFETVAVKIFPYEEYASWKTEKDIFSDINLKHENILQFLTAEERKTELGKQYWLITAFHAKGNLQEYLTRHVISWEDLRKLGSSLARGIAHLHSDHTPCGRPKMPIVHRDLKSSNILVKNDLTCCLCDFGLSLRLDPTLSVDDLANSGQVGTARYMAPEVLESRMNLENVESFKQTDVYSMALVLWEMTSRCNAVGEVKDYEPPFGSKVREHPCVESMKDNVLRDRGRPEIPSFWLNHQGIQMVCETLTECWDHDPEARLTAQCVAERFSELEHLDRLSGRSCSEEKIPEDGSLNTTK
Text: as §1, §2, §3, §4

ALK4 (ACVR1B) = target: T7, ALK4 (ACVR1B) (Homo sapiens, UniProt P36896); test: KINOMEscan competitive binding assay (Kd); settings: analyses herein; read-out: Binding constant (Kd) ALK4 (ACVR1B)
T7 sequence (P36896 24-505): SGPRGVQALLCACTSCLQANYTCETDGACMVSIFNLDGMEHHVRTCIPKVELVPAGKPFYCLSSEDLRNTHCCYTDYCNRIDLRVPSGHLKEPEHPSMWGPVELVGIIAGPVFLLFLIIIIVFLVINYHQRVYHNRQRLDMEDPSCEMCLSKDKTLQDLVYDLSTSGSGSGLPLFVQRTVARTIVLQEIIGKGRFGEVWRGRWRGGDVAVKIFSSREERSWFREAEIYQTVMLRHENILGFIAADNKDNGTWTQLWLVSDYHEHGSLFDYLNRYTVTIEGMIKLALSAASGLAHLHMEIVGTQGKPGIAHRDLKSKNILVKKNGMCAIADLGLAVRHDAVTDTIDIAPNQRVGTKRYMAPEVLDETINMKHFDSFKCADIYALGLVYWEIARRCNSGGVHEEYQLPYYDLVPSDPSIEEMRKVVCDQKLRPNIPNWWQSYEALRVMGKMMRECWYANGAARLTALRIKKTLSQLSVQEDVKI
Experimental: as §1, §2
(§5) The affinity of the ALK5 inhibitor HYL001 was determined for the ALK kinase family using the […]
(§6) DNA-tagged kinases and immobilized assay ligands, using quantitative PCR —run by Eurofins/DiscoveryX (Birmingham AL, USA). Dissociation constants were calculated by measuring the amount of kinase captured on the solid support as a function of the test compound concentration. Kd values were obtained by an 11 -point half-log dilution range of 0.5–30,000 nM of inhibitor for ALK1 (ACVRL1), ALK2 (ACVR1), ALK3 (BMPR1A), ALK4 (ACVR1B), ALK6 (BMPR1B), ACVR2B and TGFβ R2. In addition, this technology was used to assess selectivity towards a panel of 97 Kinases (scanEDGE) by Eurofins Panlabs (Grapevine TX, USA).
(§7) The strength of competitive binding, defined as the percentage of binding inhibition of kinases to assay ligan d, was visualized using the TREEspot software (DiscoverRx Corporation) and a selectivity score was calculated (the fraction of non -mutated kinases tested with competitive binding inhibition above threshold percentages 65 […]

ALK5 (TGFBR1) [1] = target: ALK5 (TGFBR1) (Homo sapiens, UniProt P36897); test: KINOMEscan competitive binding assay (Kd); settings: analyses herein; HYL001 run twice, average 22.5 nM; read-out: Binding constant (Kd) ALK5 (TGFBR1)
Chain of ALK5 (TGFBR1) (Homo sapiens, UniProt P36897) (P36897 34-503): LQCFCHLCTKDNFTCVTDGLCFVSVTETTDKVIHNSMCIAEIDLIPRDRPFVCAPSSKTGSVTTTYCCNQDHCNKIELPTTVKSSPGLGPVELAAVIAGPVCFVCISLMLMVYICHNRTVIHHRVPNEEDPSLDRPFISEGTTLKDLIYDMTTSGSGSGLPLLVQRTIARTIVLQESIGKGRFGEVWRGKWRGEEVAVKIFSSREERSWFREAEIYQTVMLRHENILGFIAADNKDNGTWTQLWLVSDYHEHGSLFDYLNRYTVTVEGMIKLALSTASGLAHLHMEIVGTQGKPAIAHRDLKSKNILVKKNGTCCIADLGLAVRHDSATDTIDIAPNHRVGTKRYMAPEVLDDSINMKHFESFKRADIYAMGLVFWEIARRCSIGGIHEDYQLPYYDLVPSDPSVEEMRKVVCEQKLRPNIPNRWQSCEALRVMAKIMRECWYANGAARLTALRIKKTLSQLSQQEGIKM
Experimental: as §1, §2, §5, §6, §7

ALK5 (TGFBR1) [2] = target: T8, ALK5 (TGFBR1) (Homo sapiens, UniProt P36897, T204D); test: Radiometric in vitro kinase activity assay (Kinase Profiler); type: biochemical
T8 sequence (P36897 200-503 T204D): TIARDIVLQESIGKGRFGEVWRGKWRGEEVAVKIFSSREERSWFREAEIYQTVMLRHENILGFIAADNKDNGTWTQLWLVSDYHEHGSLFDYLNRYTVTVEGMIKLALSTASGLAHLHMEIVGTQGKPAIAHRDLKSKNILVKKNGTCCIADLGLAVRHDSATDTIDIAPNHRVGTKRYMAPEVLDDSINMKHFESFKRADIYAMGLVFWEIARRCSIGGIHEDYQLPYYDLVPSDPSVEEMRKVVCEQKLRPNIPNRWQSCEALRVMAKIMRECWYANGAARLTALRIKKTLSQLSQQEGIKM
Experimental: as §1
Kinase affinity and selectivity […]
The activity, measured as IC50, of inhibitors was determined by radiometric γ-33P-ATP-mediated in vitro phosphorylation assays, using the Kinase Profiler service from Eurofins Pharma Discovery Services (Wolverhampton, UK) and Eurofins Cerep (Celle L’Evescault, France). Compounds, prepared in 100% DMSO, were tested using a 9-point curve with half -log serial dilutions (1–10,000 nM). […]

[3] = test system: panel of key proteins (cell receptors, neurotransmitter transporters, and ion channels); test: In vitro safety pharmacology, binding (SafetyScreen 44); settings: 10 μM HYL001
Experimental: To identify potential adverse off-target drug interactions and derisk the development of HYL001 as a drug,[22] we performed binding and enzymatic inhibition assays with a panel of key proteins (mainly cell receptors, neurotransmitter transporters, and ion channels). […]
analysis by LC-MS/MS, using MRM mode. […]
related to phase I and phase II metabolism, respectively.
The PARs were used for calculation of metabolic stability. The 0 min area ratio was considered as 100%. The […]
incubation volume / number of cells (in millions) x K e. To calculate into full body context, the values of 120 […]
In vitro safety pharmacology […]
compared with historical values determined at Eurofins. Binding was defined as the % inhibition of the signal […]
enzyme activity. […] Results showing
The tail current amplitude, induced by a one […]
and expressed as % inhibition.
The Ames test was performed at Xenomatrix (Allschwil, Switzerland). Bacteria from the S. typhimurium

T1 sequence (Q13705 19-512): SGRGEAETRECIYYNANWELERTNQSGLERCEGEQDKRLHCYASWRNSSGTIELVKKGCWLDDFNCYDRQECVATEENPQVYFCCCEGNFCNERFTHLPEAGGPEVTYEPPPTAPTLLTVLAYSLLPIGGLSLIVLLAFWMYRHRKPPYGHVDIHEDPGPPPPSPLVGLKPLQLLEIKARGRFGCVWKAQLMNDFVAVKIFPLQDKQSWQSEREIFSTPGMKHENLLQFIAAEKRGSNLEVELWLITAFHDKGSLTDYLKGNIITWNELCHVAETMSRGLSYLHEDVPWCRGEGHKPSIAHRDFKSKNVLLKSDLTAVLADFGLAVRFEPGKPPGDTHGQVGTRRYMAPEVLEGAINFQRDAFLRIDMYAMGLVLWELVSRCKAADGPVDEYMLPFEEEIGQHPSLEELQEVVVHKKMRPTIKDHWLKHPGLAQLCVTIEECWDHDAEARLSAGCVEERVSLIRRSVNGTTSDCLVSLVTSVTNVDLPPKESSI

## Cc1cccc(-c2nn3c(c2-c2ccnc4ccc(O)cc24)CCC3)n1 [HYL001, 4-(2-(6-Methylpyridin-2-yl)-5,6-dihydro-4H-pyrrolo[1,2-b]pyrazol-3-yl)quinolin-6-ol]
ACVR2B
  Kd: 0.1 µM
ALK1 (ACVRL1)
  Kd: 11 µM
ALK2 (ACVR1)
  Kd: 7.5 µM
ALK3 (BMPR1A)
  Kd: 6.9 µM
ALK6 (BMPR1B)
  Kd: 0.16 µM
TGFBR2
  Kd: 2 µM
ALK4 (ACVR1B)
  Kd: 0.013 µM
ALK5 (TGFBR1) [1]
  Kd: 0.025 µM and 0.0225 µM
ALK5 (TGFBR1) [2]
  Fold higher ALK5 IC50 than that of vactosertib: around 3.5 fold
ALK5 (TGFBR1) [2]; ALK5 IC50
  Fold increase (in vitro potency) compared to galunisertib: ~2.5 fold
ALK5 (TGFBR1) [2]; recombinant TGFBR1 fragment 200–end (T204D), read-out: kinase inhibition IC50, ALK5 (TGFBR1)
  IC50: 0.177 µM
[3]
  Inhibition of binding to any safety panel target: ≤ 50%

From PMC11729428, “New Potent Inhibitor of Transforming Growth Factor-Beta (TGFβ) Signaling that is Efficacious against Microsatellite Stable Colorectal Cancer Metastasis in Combination with Immune Checkpoint Therapy in Mice” (ACS Pharmacology & Translational Science, 2024)
